How the values were obtained:
RHO transcripts = assay: qPCR of RHO transcripts in NIH3T3 (RHO^P23H/GFP) and NIH3T3 (RHO^WT/GFP) cells; type: cell-based; settings: 10 μM, 24 h; for WT and P23H rhodopsin transcripts in comparison to DMSO control: both cell lines; for Rho mRNA level (qPCR): vs DMSO
Method: NIH3T3 (RHO^WT/GFP) and NIH3T3 (RHO^P23H/GFP) cells were seeded in the 24-well plates at a density of 2.5×10^5 cells/well and cultured at 37° C. with 5% CO2 for overnight. Cells were then incubated with the culture medium containing compounds for 24 h. After aspirating the medium, cells were collected and lysed in 300 μL/well of TRIzol (ThermoFisher, 15596026, Waltham, MA USA) for 5 min. Samples were vigorously mixed with 60 μL chloroform for 30 s, then centrifuged at 12,000×g for 15 min at 4° C. The upper aqueous phase containing RNA was taken out and mixed with 150 μL isopropanol by vigorous shaking. After sedation for 10 min, samples were centrifuged at 12,000×g for 10 min at 4° C. The pellets were washed with 300 μL 75% ethanol and centrifuged at 7,500×g at 4° C. for 5 min. The RNA pellets were air-dried for 15 min and dissolved in 30 μL nuclease-free water (FisherScientific, BP2484-100, Houston, TX USA). The yield and purity of RNA were assessed by a NanoDrop spectrometer. The cDNAs was generated from 1 μg RNA using a High-Capacity RNA-to-cDNA Kit (ThermoFisher, 4387406, Waltham, MA USA). qPCR amplifications were performed using the PowerUp SYBR Green Master Mix (ThermoFisher, A25741, Waltham, MA USA) with the cDNA templates and primers, and the reaction was controlled by a QuantStudio 3 thermocycler (ThermoFisher, Waltham, MA USA). Primer sequences are as follows: RHO, forward 5′-CCCTTCTCCAACGTCACAGG-3′ (SEQ ID NO: 1), reverse 5′-TGAGGAAGTTGATGGGGAAGC-3′ (SEQ ID NO: 2); β-actin, forward 5′-ACCTTCTACAATGAGCTGCG-3′ (SEQ ID NO: 3), reverse 5′-CTGGATGGCTACGTACATGG-3′ (SEQ ID NO: 4).

[1] = system: adRP-causing rhodopsin mutants (T4R, P23H, P53R, C110Y, D190N, P267L); assay: High-content imaging of rhodopsin mutants stably expressed in U2OS cells; type: cell-based, mouse; settings: for immunofluorescence intensities of rhodopsin mutants: six adRP mutants
Method: Seven U2OS stable cell lines were generated which separately express the WT and six mutant mouse rhodopsin (T4R, P23H, P53R, C110Y, D190N, P267L) fused with Venus fluorescence protein. Briefly, the U2OS cells (ATCC, Manassas, VA, USA) were transfected with the pcDNA3.1 Zeo containing the cDNA of mouse WT or T4R, P23H, P53R, C110Y, D190N, P267L rhodopsin fused with Venus and transfected cells were incubated in DMEM with 10% FBS for 48 h before addition of 400 μg/mL of Zeocin for positive clone selection. Colonies of cells survived from 1 week of Zeocin selection were collected, and expression of WT and six mutant rhodopsins were confirmed by fluorescence of Venus and immunoblotting of rhodopsin.
To assess the effect of active compounds on the clearance of P23H rhodopsin in mammalian cells, an image-based assay was performed using NIH3T3 (RHO^WT/GFP) and NIH3T3 (RHO^P23H/GFP) cells, as described previously. Briefly, cells were seeded at 5000 cells per well in 384-well plates and incubated at 37° C. in 5% CO2 for 4 hours until cells were attached to the bottom of the plate. Attached cells were treated with compounds for 24 hours. The assay medium was aspirated, and cells were fixed with 4% paraformaldehyde at 20 μL per well for 20 min at room temperature. Cell membranes were permeabilized with PBS containing 0.1% Triton X-100 (PBST) and then incubated with 50 µg/mL 1D4 anti-rhodopsin antibody at 15 μL/well for 1 hour at room temperature. After three washes with 50 μl/well of PBST, cells were incubated with 15 μL/well Cy3-conjugated goat anti-mouse IgG antibody for 1 hour at room temperature. After three washes with 50 μl/well of PBST, cells were incubated in 50 μl/well of PBS containing 2 μg/mL Hoechst 33342 to stain the nuclei. Finally, the immunostained cells were imaged by an ImageExpress High Content Imaging System (MolecularDevices). Immunofluorescence of rhodopsin was measured by MetaXpress software using the mean of total fluorescence of Cy3 channel per cell per well taken from five fields containing 600-1000 intact cells per well. After normalizing the fluorescence intensities of rhodopsin to the DMSO treated cells as 0% and cells immunostained with secondary antibody only as −100%, dose-response curves for each compound were plotted and fitted by a modified Hill function using the Origin software. The high-content imaging experiments for hit validation were performed at the CWRU drug discovery facility, and the high-content imaging analyses for the MTX co-treatment with BafA1 and MG-132 were undertaken at the University of Pittsburgh Drug Discovery Institute.

[2] = cited from earlier work

| SMILES | WT and P23H rhodopsin transcripts in comparison to DMSO control (RHO transcripts) | Rho mRNA level (qPCR) (RHO transcripts) | immunofluorescence intensities of rhodopsin mutants [1] | increase of rhodopsin transcripts compared to DMSO control (RHO transcripts; both NIH3T3 (RHO^P23H/GFP) and NIH3T3 (RHO^WT/GFP) cells) | rhodopsin immunofluorescence in cells expressing the P23H, C110Y, D190N and P267L mutants ([1]; seven doses) | water solubility [2] |
| --- | --- | --- | --- | --- | --- | --- |
| CCn1cnc2c(N)ncnc21 [CL-007] | reduced non-selectively | Down | reduced |  |  |  |
| NCC(=O)COP(=O)(O)O [CL-005] |  | Up | reduced | up to 2 fold |  |  |
| O=C(NC1CCNCC1)c1n[nH]cc1NC(=O)c1c(Cl)cccc1Cl [CL-006] | reduced non-selectively | Down |  |  |  |  |
| O=C(O)C1=CC=CC(O)C1O (stereo not drawn) [CL-003] | reduced non-selectively | Down |  |  |  |  |
| CN(Cc1cnc2nc(N)nc(N)c2n1)c1ccc(C(=O)N[C@@H](CCC(=O)O)C(=O)O)cc1 [CL-009, N-[4-[[(2,4-diamino-6-pteridinyl)methyl]methylamino]benzoyl]-L-glutamic acid] | did not affect the transcription | No Change |  |  | dose-dependent reductions | water-soluble |
| CC(O)CN (stereo not drawn) [CL-004] | reduced non-selectively | Down |  |  |  |  |
| CC(=O)OC(CC(=O)O)C[N+](C)(C)C (stereo not drawn) [CL-002] | reduced non-selectively | Down | reduced |  |  |  |
| CC(=O)OC(CC(=O)[O-])C[N+](C)(C)C (stereo not drawn) [CL-001] | reduced non-selectively | Down | reduced |  |  |  |
| CCC(C)(O)C(O)C(=O)O (stereo not drawn) [CL-008] | reduced non-selectively | Down |  |  |  |  |
